One test concerns PGE2. As to the kind of experiment: PGE2 ELISA after LPS. The class given is cell-based. The protocol: The production of TNF-α was measured with a commercial ELISA kit from R&D Systems. The PGE2 release was measured with a commercial ELISA kit from Cayman Chemical Company.
(§1) Neuron-glia cultures were pretreated for 30 min with MMT (3 μM) or vehicle before LPS stimulation. […] Production of superoxide (30 min after LPS) and iROS (2 h after LPS) was decreased by MMT treatment (FIGS. 6A and 6B). […] The production of PGE2 in cultures pretreated with 3 and 10 μM MMT decreased by 23% and 27% respectively (FIG. 6E).
(An ELISA detects its analyte on a solid surface through an enzyme-linked reagent.)

For test [1], the system named is microglia. The experiment in a line: Superoxide assay (SOD-inhibitable WST-1 reduction) after LPS. The class given is cell-based. The note with it: 30 min after LPS. The protocol:
Extracellular superoxide (O2^−) production from microglia was determined by measuring the superoxide dismutase (SOD) inhibitable reduction of 2-(4-lodophenyl)-3-(4-nitrophenyl)-5-(2,4,-disulfophenyl)-2H-tetrazolium, monosodium salt, WST-1. Briefly, 200 μL of primary enriched-microglia were seeded (1×10^5/well) in 96-well plates. The cells were then incubated for 24 h at 37° C. in a humidified atmosphere of 5% CO2 and 95% air. Immediately before treatment, cells were washed twice with Hanks balanced salt solution (HBSS). To each well, 100 μL of HBSS with or without SOD (600 U/mL), 50 μL of vehicle or LPS, and 50 μL of WST-1 (1 mM) in HBSS were added. The cultures were incubated for 30 min at 37° C. and 5% CO2 and 95% air. The absorbance at 450 nm was read with a Spectra Max Plus microtiter plate spectrophotometer (Molecular Devices, Sunnyvale, Calif., USA). […] The amount of SOD-inhibitable superoxide was calculated and expressed as percent of vehicle-treated control cultures.
as §1

In test [2] the test system is rewarding effect of morphine. As to the kind of experiment: Conditioned place preference (CPP) test in chronic morphine-treated rats. Type of test: in vivo, SD rats. The protocol:
The SD rats were divided into four groups as follow: • 1. Control group: (inject saline only) • 2. Morphine only group: (M, 5 mg/kg) • 3. Pretreatment memantine (MEM, 0.2 mg/kg) with morphine group • (MEM was administrated 30 min before each M injection for 6 days) • 4. Post-treatment MEM group • (MEM was administrated after chronic M injection for 6 days)
Drug-induced reward effect was measured by the conditioned place preference (CPP) test. The CPP test apparatus was divided into two compartments. A two compartment box (60×29.2×29.2 cm) with a transparent Plexiglas front was separated by a gray cylinder platform (10.3 cm in diameter and 12 cm in height) as the Dr. Tseng described previously was used (Terashvili et al., 2008). One compartment was white with a textured floor and the other was black with a smooth floor. […] We determined the place preference before conditioning and on the day after conditioning (day 0, day 7, day 11 and day 13) by placing the rat into the CPP test apparatus with the gray cylinder doors open for 15 min. The time that the rats stayed in each compartment was recorded. The measurement of the drug reward effect was determined by the increase in the time spent in the compartment previously paired with drug injection relative to that spent in the saline-paired compartment.

Test [3] relates to microglia. The experiment in a line: Intracellular reactive oxygen species assay (DCFH oxidation) after LPS. Type of test: cell-based. The settings on record: 2 h after LPS. The protocol:
The production of intracellular reactive oxygen species (ROS) was measured by DCFH oxidation. The DCFH-DA reagent passively enters cell where it is de-acetylated by esterase to nonfluorescent DCFH. Inside the cell, DCFH reacts with ROS to form DCF, the fluorescent product. For this assay, 10 mM DCFH-DA was dissolved in methanol and was diluted 500-fold in HBSS to give a 20 μM concentration of DCFH-DA. Enriched-microglia cultures seeded (5×10^4) in 96-well plates were then exposed to DCFH-DA for 1 h, followed by treatment with HBSS containing several concentrations of LPS or substance P for 2 h. After incubation, the fluorescence was read at the 485 nm excitation and 530 nm emission on a fluorescence plate reader. […] To calculate the amount of intracellular ROS produced, the mean control treatment was subtracted from the mean treatment group.
as §1

A further test deals with NMDA receptor. The note with it: in vitro; cited from earlier work.
Test [4] deals with microglia. The experiment in a line: OX-42 immunostaining of LPS-activated microglia in neuron-glia cultures. Type of test: cell-based. The note with it: MMT 3 μM pretreated 30 min, twelve hours after LPS. The protocol:
DA neurons were recognized with the polyclonal antibody against tyrosine hydroxylase (TH) and microglia was detected with the OX-42 antibody against CR3 receptor. Briefly, cells were fixed for 20 min at room temperature in 3.7% formaldehyde diluted in phosphate-buffered saline (PBS). After washing twice with PBS, the cultures were treated with 1% hydrogen peroxide for 10 min. […] To quantify cell numbers, nine representative areas per well in the 24-well plate were counted under the microscope at 100× magnification by two individuals. […]
To provide evidence of anti-inflammatory effect of MMT, the degree of inhibition of LPS-induced activation of microglia was determined by 1) morphological observation after immunostaining of microglia marker (OX-42) and 2) release of pro-inflammatory factors from activated microglia, such as extracelloualr superoxide radicals, intracellular reactive oxygen species (iROS), nitric oxide (NO), PGE2. […]

The test system of another test is DA neurons. The experiment in a line: LPS-induced dopaminergic neurotoxicity in microglia-depleted neuron-glia cultures. Type of test: cell-based. The settings on record: microglia depleted by LME to <1%, LPS 7 days. The protocol: To evaluate the influence of various kinds of glia contribute to effect of MMT on LPS-induced dopaminergic neurotoxicity, microglia-depleted Neuron-/glia Cultures were performed.

As for `CC12CC3CC(C)(C1)CC(N)(C3)C2.Cl` [MMT, 1-amino-3,5-dimethyladamantane hydrochloride], the “decrease of PGE2 production” value in the test with PGE2 (pretreated with 3 μM MMT) is 23%; in the test with PGE2 (pretreated with 10 μM MMT) it was 27%. For the same compound, the production of superoxide entry in the test on microglia [1] is given as “decreased”. Further, the “time of staying in the compartment paired with morphine (CPP)” value in test [2] (post-treatment, memantine 0.2 mg/kg s.c. once daily for 6 days after chronic morphine) is given as “reduced time of staying in the compartment paired with morphine”; in test [2] (pretreatment, memantine 0.2 mg/kg s.c. 30 min before each morphine 5 mg/kg i.p., 6 days) it was “reduced time of staying in the compartment paired with morphine”. For the same compound, the “production of iROS” value in the test on microglia [3] is recorded as “decreased”. Besides, the “concentration of memantine on NMDA receptor blocking” value in the test on NMDA receptor was “about 10 μM”. Also, the “activation of OX-42 stained microglia vs LPS-treated cultures” value with microglia [4] is “less activated”. For the same compound, the “protective effect against LPS-induced dopaminergic neurotoxicity” value with DA neurons was “not found in depletion of microglia”.

Values taken from patent US20150080475A1, “Memantine Protects Inflammation-Related Degeneration of Dopamine Neurons Through Inhibition of Over-Activated Microglia and Release of Neurotrophic Factors From Astroglia” (priority 2009, published 2015).
